Test results taken from ChEMBL document CHEMBL1201862, “PubChem BioAssay data set” (2004).
Calls of active or inactive are those of the source.

How the values were obtained:
[1] = Luminescence Cell-Based Dose Retest to Confirm Inhibitors of Cancer Stem Cells. [Related pubchem assays (depositor defined):AID2717, AID2721]; assay type: functional; conditions: Homo sapiens
[2] = biological target: T1, Corticotropin-releasing factor receptor 2/Corticotropin-releasing factor-binding protein (Homo sapiens, UniProt P24387+Q13324); assay: activators of CRF receptor 2 with binding protein – uHTS hits, confirmation (AID 602473); assay type: functional; conditions: read-out: EC50_Mean
T1 sequence (Q13324 whole entry): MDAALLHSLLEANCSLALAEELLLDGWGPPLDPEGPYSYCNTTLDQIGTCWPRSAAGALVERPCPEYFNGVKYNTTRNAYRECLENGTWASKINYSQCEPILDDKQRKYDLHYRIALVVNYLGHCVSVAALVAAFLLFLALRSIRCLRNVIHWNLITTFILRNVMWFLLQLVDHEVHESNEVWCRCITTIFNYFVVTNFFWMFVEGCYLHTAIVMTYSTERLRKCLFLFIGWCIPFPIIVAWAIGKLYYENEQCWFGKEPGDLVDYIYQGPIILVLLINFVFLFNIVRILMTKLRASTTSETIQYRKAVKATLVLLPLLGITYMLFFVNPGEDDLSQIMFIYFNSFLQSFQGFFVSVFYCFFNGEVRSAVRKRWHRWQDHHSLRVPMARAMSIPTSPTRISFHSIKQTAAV
T1 sequence (P24387 whole entry): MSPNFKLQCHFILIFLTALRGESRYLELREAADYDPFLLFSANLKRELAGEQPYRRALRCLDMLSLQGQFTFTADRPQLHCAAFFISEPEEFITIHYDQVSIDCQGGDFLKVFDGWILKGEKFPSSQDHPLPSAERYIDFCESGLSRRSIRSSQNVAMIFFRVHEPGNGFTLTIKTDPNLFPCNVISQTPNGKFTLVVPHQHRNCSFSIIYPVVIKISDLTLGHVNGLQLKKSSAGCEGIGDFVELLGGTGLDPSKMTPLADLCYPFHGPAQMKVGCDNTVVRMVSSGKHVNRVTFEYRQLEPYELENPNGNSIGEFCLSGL

[3] = biological target: Cytochrome P450 2C19 (Homo sapiens, UniProt P33261); assay: Cytochrome panel assay with activity outcomes. Panel member name: p450-cyp2c19 Compounds with AC50 equal or less than 10 uM are considered active; assay type: functional; conditions: read-out: AC50
[4] = biological target: T1, Corticotropin-releasing factor receptor 2/Corticotropin-releasing factor-binding protein; assay: Dose Response confirmation of uHTS hits for small molecule antagonists of the CRF-binding protein and CRF-R2 receptor complex.; assay type: functional; conditions: read-out: IC50_Mean
[5] = biological target: T2, Cytochrome P450 1A2 (Homo sapiens, UniProt P05177);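 note: PubChem cytochrome P450 panel assay, CYP1A2 panel member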
T2 sequence (P05177 whole entry): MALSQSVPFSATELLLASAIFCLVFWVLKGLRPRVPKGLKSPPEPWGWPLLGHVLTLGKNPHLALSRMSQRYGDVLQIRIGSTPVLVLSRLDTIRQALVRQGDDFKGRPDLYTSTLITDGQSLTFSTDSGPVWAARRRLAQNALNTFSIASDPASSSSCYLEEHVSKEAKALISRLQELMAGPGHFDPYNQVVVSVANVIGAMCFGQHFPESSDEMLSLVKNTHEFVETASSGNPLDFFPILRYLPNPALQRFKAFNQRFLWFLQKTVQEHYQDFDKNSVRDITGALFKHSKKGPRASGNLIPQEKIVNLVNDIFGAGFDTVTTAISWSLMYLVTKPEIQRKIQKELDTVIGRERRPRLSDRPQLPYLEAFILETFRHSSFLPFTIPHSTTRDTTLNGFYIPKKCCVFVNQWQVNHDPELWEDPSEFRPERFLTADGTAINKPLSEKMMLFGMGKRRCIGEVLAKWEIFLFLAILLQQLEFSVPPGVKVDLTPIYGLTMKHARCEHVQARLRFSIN

[6] = biological target: Cytochrome P450 2C9 (Homo sapiens, UniProt P11712)
[7] = biological target: T3, Replicative DNA helicase DnaB (Mycobacterium tuberculosis, UniProt P9WMR3); assay: DnaB intein splicing inhibitors, dose response, biochemical, cell-free fluorescence (AID 449749); assay type: functional
T3 sequence (P9WMR3 whole entry): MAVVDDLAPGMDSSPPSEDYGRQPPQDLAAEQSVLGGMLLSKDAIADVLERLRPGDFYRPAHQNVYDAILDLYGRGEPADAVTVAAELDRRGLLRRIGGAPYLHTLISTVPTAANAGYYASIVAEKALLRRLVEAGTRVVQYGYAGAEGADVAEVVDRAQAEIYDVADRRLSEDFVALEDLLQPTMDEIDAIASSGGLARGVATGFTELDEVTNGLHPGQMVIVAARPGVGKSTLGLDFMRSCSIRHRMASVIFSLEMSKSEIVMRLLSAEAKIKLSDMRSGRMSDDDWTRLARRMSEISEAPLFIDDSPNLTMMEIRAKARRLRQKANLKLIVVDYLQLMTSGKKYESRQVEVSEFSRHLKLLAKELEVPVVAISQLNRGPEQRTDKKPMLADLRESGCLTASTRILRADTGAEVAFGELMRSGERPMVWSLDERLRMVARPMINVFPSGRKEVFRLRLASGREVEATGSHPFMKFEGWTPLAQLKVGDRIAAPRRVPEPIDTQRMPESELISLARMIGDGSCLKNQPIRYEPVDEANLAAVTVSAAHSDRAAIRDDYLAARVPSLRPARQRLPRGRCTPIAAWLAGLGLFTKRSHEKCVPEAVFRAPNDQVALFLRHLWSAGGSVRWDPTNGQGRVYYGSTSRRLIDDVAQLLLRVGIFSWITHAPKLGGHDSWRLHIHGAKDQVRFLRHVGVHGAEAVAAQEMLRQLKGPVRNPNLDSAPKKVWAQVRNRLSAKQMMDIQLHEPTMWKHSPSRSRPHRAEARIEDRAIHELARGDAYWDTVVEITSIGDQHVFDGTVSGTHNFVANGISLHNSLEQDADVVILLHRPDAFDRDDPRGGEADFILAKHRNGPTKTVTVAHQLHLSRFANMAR

[8] = biological target: T4, Protein RecA (Mycobacterium tuberculosis, UniProt P9WHJ3); assay: Fluorescence Cell-Free Homogeneous Dose Retest to Identify Inhibitors of RecA-Intein Splicing Activity. [Related pubchem assays (depositor defined):AID2097, AID2223, AID489010, AID492950]; assay type: functional
T4 sequence (P9WHJ3 whole entry): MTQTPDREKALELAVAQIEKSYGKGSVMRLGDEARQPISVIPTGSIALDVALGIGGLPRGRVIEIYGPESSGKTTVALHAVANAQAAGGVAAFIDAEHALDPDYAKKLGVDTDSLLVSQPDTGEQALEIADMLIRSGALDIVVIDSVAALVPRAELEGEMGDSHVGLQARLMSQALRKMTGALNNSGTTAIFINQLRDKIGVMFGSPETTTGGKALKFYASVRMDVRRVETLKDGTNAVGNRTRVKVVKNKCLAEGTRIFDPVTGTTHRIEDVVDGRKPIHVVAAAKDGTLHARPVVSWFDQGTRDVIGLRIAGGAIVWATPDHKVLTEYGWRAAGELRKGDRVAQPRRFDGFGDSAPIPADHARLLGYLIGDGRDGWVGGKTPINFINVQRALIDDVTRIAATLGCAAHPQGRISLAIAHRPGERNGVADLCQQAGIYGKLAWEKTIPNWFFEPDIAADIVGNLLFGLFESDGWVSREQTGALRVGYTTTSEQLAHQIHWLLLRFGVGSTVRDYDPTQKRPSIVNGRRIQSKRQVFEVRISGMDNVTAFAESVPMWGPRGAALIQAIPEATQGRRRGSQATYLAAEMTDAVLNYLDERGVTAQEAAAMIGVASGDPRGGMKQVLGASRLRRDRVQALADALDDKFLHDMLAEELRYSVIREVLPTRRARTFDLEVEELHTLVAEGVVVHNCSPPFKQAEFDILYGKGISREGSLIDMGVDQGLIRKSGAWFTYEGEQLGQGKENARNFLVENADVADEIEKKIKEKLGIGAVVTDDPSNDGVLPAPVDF

[9] = tested on: INS1; assay: INS-1E survival protection against cytokine death – cell-based, luminescence, retest, dose response (AID 449756); assay type: functional; conditions: Rattus norvegicus;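 note: cell death triggered by IL-1 beta plus TNF-alpha plus IFN-gamma mixture; protective hits raise ATP signal compared with cytokine alone wells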
[10] = biological target: Paired box protein Pax-8 (Homo sapiens, UniProt Q06710); assay: PAX8 transcriptional activity inhibition in RMG-I – RMG-I cells, luciferase, cherry-pick, dose response (AID 687027); assay type: functional, cell-based;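 note: luciferase reporter driven by Pax8 target thyroperoxidase promoter measured by SteadyGlo luminescence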
[11] = tested on: Streptococcus sp. 'group A'; assay: Streptococcus pyogenes SK(-)GAS viability under kanamycin – luminescence, BacTiterGlo, confirmation, counter-screen for streptokinase expression inhibitor project, dose response (AID 1900); assay type: functional, organism-based
[12] = tested on: Streptococcus; assay: GAS UMAA2166 growth inhibition – luminescence, BacTiterGlo, counter-screen for streptokinase expression inhibitor project, dose response (AID 1915); assay type: functional, organism-based;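 note: potency for reduction of bacterial viability or growth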

Chain of Paired box protein Pax-8 (Q06710 whole entry): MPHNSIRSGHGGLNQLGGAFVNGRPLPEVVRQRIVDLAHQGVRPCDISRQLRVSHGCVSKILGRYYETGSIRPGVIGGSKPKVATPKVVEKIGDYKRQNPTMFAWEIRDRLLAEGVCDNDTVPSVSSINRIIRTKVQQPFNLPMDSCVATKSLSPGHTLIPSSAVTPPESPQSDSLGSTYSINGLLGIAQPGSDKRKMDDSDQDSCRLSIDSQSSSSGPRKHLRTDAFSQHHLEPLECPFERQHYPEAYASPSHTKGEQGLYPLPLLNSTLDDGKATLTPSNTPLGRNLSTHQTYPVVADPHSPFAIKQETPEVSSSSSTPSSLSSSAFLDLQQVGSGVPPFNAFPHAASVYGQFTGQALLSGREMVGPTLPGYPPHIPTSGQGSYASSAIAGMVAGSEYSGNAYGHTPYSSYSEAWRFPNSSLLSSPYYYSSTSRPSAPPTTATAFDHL
Chain of Cytochrome P450 2C9 (P11712 whole entry): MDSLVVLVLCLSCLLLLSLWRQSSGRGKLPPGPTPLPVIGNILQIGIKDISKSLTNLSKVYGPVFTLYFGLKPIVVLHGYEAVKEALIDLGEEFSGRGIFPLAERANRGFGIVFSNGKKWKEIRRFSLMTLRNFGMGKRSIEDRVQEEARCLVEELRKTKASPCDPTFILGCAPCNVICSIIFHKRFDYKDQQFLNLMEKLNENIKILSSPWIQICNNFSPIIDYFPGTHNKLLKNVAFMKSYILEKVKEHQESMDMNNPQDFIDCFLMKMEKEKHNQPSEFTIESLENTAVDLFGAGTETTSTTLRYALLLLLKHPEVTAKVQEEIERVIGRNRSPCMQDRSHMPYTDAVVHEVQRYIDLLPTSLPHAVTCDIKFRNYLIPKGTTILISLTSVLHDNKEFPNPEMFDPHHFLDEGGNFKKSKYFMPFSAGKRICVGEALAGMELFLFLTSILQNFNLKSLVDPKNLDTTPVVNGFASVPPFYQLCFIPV
Chain of Cytochrome P450 2C19 (P33261 whole entry): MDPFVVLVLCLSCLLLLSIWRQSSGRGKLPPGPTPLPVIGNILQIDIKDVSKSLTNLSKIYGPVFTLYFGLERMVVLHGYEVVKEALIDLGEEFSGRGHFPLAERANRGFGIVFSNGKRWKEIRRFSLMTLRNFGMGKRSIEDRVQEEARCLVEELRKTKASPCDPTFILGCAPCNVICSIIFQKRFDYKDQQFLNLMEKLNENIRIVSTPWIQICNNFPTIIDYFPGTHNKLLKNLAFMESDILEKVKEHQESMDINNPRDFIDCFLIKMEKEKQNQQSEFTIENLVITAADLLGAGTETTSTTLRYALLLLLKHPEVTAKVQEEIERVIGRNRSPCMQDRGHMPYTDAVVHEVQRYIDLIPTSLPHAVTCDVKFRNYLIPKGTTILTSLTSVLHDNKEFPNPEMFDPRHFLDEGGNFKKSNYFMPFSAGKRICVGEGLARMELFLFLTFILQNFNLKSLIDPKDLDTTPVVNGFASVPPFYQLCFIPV

CC#CCOC(=O)c1c(C)nc2sc3c(c2c1N)CCC(O)C3 (configuration not stated)
AC50 [1]: 4.7 µM (active)

Cc1sc2ncnc(OCC(=O)NC(C)C)c2c1C
EC50 [2]: > 53 µM (inactive)
AC50 [3]: 20 µM (inconclusive)
IC50 [4]: > 47.1 µM (inactive)
AC50 [5]: 31.6 µM (inconclusive)
AC50 [6]: 22.4 µM (inconclusive)

CC1=NNC(=O)C1Cc1ccc(F)cc1 (configuration not stated)
AC50 [7]: 14 µM (active)
EC50 [8]: 14.2 µM (active)

COc1ccc(C(c2c(C)n[nH]c2O)c2c(C)n[nH]c2O)cc1Br
AC50 [7]: 0.32 µM (active)
EC50 [8]: 0.289 µM (active)

COc1ccccc1NC(=O)Nc1ccc(-n2ccc(C(F)(F)F)n2)cc1
AC50 [1]: 4.01 µM (active)

O=C(C1CCCN(S(=O)(=O)c2ccc([N+](=O)[O-])cc2)C1)N1CCCCC1 (configuration not stated)
AC50 [1]: > 195 µM (inactive)

CCOC(=O)C(=NCCCN1CCOCC1)NNc1cccc(C(F)(F)F)c1
AC50 [1]: 8.17 µM (active)

Fc1ccc(NC(S)=Nc2cc(-c3ccccc3)[nH]n2)cc1Cl
AC50 [1]: 3.05 µM (active)

Cc1ccc(CN2CCN(C3CCOCC3)CC2CCO)cc1 (configuration not stated)
EC50 [2]: > 53 µM (inactive)
IC50 [4]: > 47.1 µM (inactive)

Cc1ccc2nsnc2c1NS(=O)(=O)c1c(C)ccc2nsnc12
AC50 [7]: 37.8 µM (active)
EC50 [8]: 24.8 µM (active)

Cc1cccc(C(=O)NC(=S)N2CCN(C(=S)NC(=O)c3cccc(C)c3)CC2)c1
EC50 [2]: > 53 µM (inactive)
IC50 [4]: > 47.1 µM (inactive)

Cc1csc2c(N3CCN(C(=O)c4ccc(C(C)(C)C)cc4)CC3)ncnc12
AC50 [9]: 13.2 µM (active)

Cc1ccccc1C(=O)N1CCN(c2ccc(NC(=O)c3cccnc3)cc2)CC1
AC50 [9]: 7.89 µM (active)

COc1ccc(-c2ccc(C)cc2)cc1[C@H]1[C@@H]2C=CCC[C@@]2(C)C(=O)N1Cc1ccccc1
AC50 [1]: 3.36 µM (active)

Cc1n[nH]c(O)c1C(c1ccc([N+](=O)[O-])cc1)c1c(C)n[nH]c1O
AC50 [7]: 0.704 µM (active)
EC50 [8]: 0.27 µM (active)

Clc1ccc(-c2nnc(CSc3nnc(-c4cccs4)o3)o2)cc1
EC50 [2]: > 53 µM (inactive)
IC50 [4]: > 47.1 µM (inactive)

CCOc1cc(/C=C2\C(=O)N(c3ccc(C(N)=O)cc3)N=C2C)ccc1OC(=O)c1cccs1
AC50 [7]: 2.35 µM (active)
EC50 [8]: 1.93 µM (active)

O=C(Nc1ccccc1N(C(=O)c1ccco1)S(=O)(=O)c1cccs1)c1ccco1
AC50 [7]: 5.6 µM (active)
EC50 [8]: 8.58 µM (active)

COc1cccc(C2CC(c3cccs3)=NN2C(=S)Nc2ccccc2)c1OC (configuration not stated)
EC50 [2]: > 53 µM (inactive)
IC50 [4]: > 47.1 µM (inactive)

O=C(Nc1ccc([N+](=O)[O-])cn1)c1cc(-c2cccc(Br)c2)nc2ccccc12
AC50 [10]: 45.6 µM (active)

CCOC(=O)c1sc(NC(=O)c2cccc(S(=O)(=O)N3CCN(C)CC3)c2)cc1C
EC50 [2]: > 53 µM (inactive)
IC50 [4]: > 47.1 µM (inactive)

O=C(NCc1ccccn1)C1CCN(S(=O)(=O)c2c[nH]cn2)CC1
EC50 [2]: > 53 µM (inactive)
IC50 [4]: > 47.1 µM (inactive)

CC(Oc1cccc(Cl)c1)C(=O)NNC(=O)c1cccnc1 (configuration not stated)
EC50 [2]: > 53 µM (inactive)
IC50 [4]: > 47.1 µM (inactive)

Oc1ccc(/C=N/Nc2nc(N3CCCCCC3)nc(N3CCCCCC3)n2)c(O)c1
EC50 [2]: > 53 µM (inactive)
EC50 [11]: 1.13 µM (active)
EC50 [12]: 1.86 µM (active)
IC50 [4]: > 47.1 µM (inactive)

Cc1ccc(S(=O)(=O)Nc2ccc3c(c2)C(=O)N([C@H](C)CO)C[C@@H](C)[C@H](CN(C)Cc2ccc(C(F)(F)F)cc2)OCCCC[C@@H](C)O3)cc1
AC50 [10]: 8.45 µM (active)

C[C@@H]1CN([C@H](C)CO)C(=O)c2cc(NC(=O)Nc3ccc(F)cc3)ccc2O[C@@H](C)CCCCO[C@H]1CN(C)S(=O)(=O)c1ccc(F)cc1
AC50 [10]: 8.62 µM (active)

C[C@@H]1CCCCO[C@H](CN(C)Cc2ccc(Cl)c(Cl)c2)[C@@H](C)CN([C@@H](C)CO)C(=O)c2cc(NS(=O)(=O)c3ccc(Cl)cc3)ccc2O1
AC50 [10]: 10.2 µM (active)
